Experimental data reported in patent publication US9469659B2, “Compositions and methods for improving glucose uptake” (Board of Supervisors of Louisiana State University and …, priority 2012, dated 2016).

Tests used:
3T3-L1 cells = assay: Glucose uptake under basal and insulin stimulated conditions (FIG. 2); format: cell-based; conditions: 24 hours exposure
Procedure: Next, glucose uptake by 3T3-L1 cells exposed to compounds 1-5 was determined at 5 μM concentration. Cells were exposed to compounds 1-5 for 24 hours and exposure to DMSO was used as the control group. 2-Deoxy glucose (2-DG) uptake was determined using the analog compounds without serum starving the cells prior to determining glucose uptake. As indicated in FIG. 1 glucose uptake in 3T3-L1 pre-adipocytes was determined by exposing cells to compounds 1-5 for 24 hours without serum starvation. All compounds show significant increase (p<0.05) in glucose uptake under basal conditions compared with the DMSO treated control cells. To confirm these observations glucose uptake was examined under basal and insulin stimulated conditions with cells exposed to compounds 1-5 for 24 hours.

3T3-L1 pre adipocytes = assay: Cell toxicity of compounds at various doses; format: cell-based
Procedure: For the following screens, compounds 1-5 were dissolved in DMSO. 3T3-L1 pre adipocytes were first exposed to different concentrations (5 μM, 10 μM, 20 μM, 50 μM and 100 μM) of the compounds to test for toxicity compared with DMSO control exposure. Exposure to other concentrations was followed until Day 5. Compound 2 was the most toxic at 20 μM on Day 5.

[1] = 5 μM, Day 1, 3T3-L1 pre adipocytes
[2] = 5 μM, Day 2, 3T3-L1 pre adipocytes
[3] = 5 μM, Day 3, 3T3-L1 pre adipocytes
[4] = 5 μM, Day 4, 3T3-L1 pre adipocytes
[5] = 5 μM, Day 5, 3T3-L1 pre adipocytes
[6] = 10 μM, Day 1, 3T3-L1 pre adipocytes
[7] = 10 μM, Day 2, 3T3-L1 pre adipocytes
[8] = 10 μM, Day 3, 3T3-L1 pre adipocytes
[9] = 10 μM, Day 4, 3T3-L1 pre adipocytes
[10] = 10 μM, Day 5, 3T3-L1 pre adipocytes
[11] = 20 μM, Day 1, 3T3-L1 pre adipocytes
[12] = 20 μM, Day 2, 3T3-L1 pre adipocytes
[13] = 20 μM, Day 3, 3T3-L1 pre adipocytes
[14] = 20 μM, Day 4, 3T3-L1 pre adipocytes
[15] = 20 μM, Day 5, 3T3-L1 pre adipocytes
[16] = 50 μM, Day 1, 3T3-L1 pre adipocytes
[17] = 50 μM, Day 2, 3T3-L1 pre adipocytes
[18] = 100 μM, Day 1, 3T3-L1 pre adipocytes
[19] = 100 μM, Day 2, 3T3-L1 pre adipocytes

| Structure (SMILES) | Glucose uptake under basal and insulin stimulated conditions (3T3-L1 cells) | Cell toxicity (3T3-L1 pre adipocytes; [1]) | Cell toxicity (3T3-L1 pre adipocytes; [2]) | Cell toxicity (3T3-L1 pre adipocytes; [3]) | Cell toxicity (3T3-L1 pre adipocytes; [4]) | Cell toxicity (3T3-L1 pre adipocytes; [5]) | Cell toxicity (3T3-L1 pre adipocytes; [6]) | Cell toxicity (3T3-L1 pre adipocytes; [7]) | Cell toxicity (3T3-L1 pre adipocytes; [8]) | Cell toxicity (3T3-L1 pre adipocytes; [9]) | Cell toxicity (3T3-L1 pre adipocytes; [10]) | Cell toxicity (3T3-L1 pre adipocytes; [11]) | Cell toxicity (3T3-L1 pre adipocytes; [12]) | Cell toxicity (3T3-L1 pre adipocytes; [13]) | Cell toxicity (3T3-L1 pre adipocytes; [14]) | Cell toxicity (3T3-L1 pre adipocytes; [15]) | Cell toxicity (3T3-L1 pre adipocytes; [16]) | Cell toxicity (3T3-L1 pre adipocytes; [17]) | Cell toxicity (3T3-L1 pre adipocytes; [18]) | Cell toxicity (3T3-L1 pre adipocytes; [19]) | other results |
| --- | --- | --- | --- | --- | --- | --- | --- | --- | --- | --- | --- | --- | --- | --- | --- | --- | --- | --- | --- | --- | --- |
| Cc1cc(C(C#N)Nc2ccc(B3OC(C)(C)C(C)(C)O3)cc2)no1 (stereo not drawn) [Compound 3] | most significant increase | 0% | 0-5% | 0-5% | 0-5% | 0-5% | 0-5% | >5% | ≧10% | ≧10% | ≧10% | 5-10% | 15-20% | >20% | 20-30% | ≧30% | 15-20% | 90-95% | 60-70% | 95-100% | – |
| CC1(C)OB(c2ccc(NC(C#N)c3cc(-c4ccccc4)on3)cc2)OC1(C)C (stereo not drawn) [Compound 2] | – | 0% | 0-5% | 0-5% | 10-20% | 10-20% | 5-10% | >10% | ≧10% | 30-40% | ≧40% | >10% | 20-30% | 40-50% | 60-70% | 70-80% | 30-40% | 95-100% | >90% | 95-100% | Toxicity (in words, ranking among compounds) (3T3-L1 pre adipocytes; [15]): most toxic |
| N#CC(Nc1ccc([B-](F)(F)F)cc1)c1ccco1 (stereo not drawn) [Compound 5] | most significant increase | 0% | 0-5% | 0-5% | 0-5% | 0-5% | 0-5% | >5% | ≧10% | ≧10% | ≧10% | 5-10% | 10-15% | 10-15% | 10-15% | 10-15% | >15% | 90-95% | >90% | 95-100% | – |
| CC1(C)OB(c2ccc(NC(C#N)c3cc(-c4ccc(F)cc4)on3)cc2)OC1(C)C (stereo not drawn) [Compound 1] | – | 0% | 0-5% | 0-5% | 0-5% | ≧5% | 5-10% | 5-10% | 5-10% | 5-10% | 5-10% | 5-10% | ≧10% | ≧10% | 10-15% | 10-15% | 30-40% | 90-95% | >90% | 95-100% | – |
| N#CC(Nc1ccc([B-](F)(F)F)cc1)c1cc(-c2ccc(F)cc2)on1 (stereo not drawn) [Compound 4] | most significant increase | 0% | 0-5% | 0-5% | 0-5% | 0-5% | 0-5% | >5% | ≧10% | ≧10% | ≧10% | 5-10% | 10-15% | ≧15% | ≧15% | ≧15% | 30-40% | 90-95% | >90% | 95-100% | – |
